From a melting point compilation (Tetko et al.; mined from patent text by program, amines drawn as free bases though some values may be those of a salt)

Structure (SMILES) | melting point
C1=C(c2ccccc2)CCN(CCCCc2ccncc2)C1 | 89 to 90 °C
CC(=O)C=Cc1ccc(Cl)cc1Cl | 79 to 80 °C
CCCCc1ccc(NC=C(C#N)C(=O)OCC)nc1 | 69 to 73 °C
CC(C)C(=O)Nc1cccn1C | 122 to 124 °C
c1ccc(C2CCN(CC34CC(c5ccccc53)c3ccccc34)CC2)cc1 | > 300 °C
CC(C)ON=Cc1nn(-c2c(Cl)cc(C(F)(F)F)cc2Cl)c(N)c1S(C)=O (centres undefined) | 128 to 130 °C
CC(=O)Nc1cccc(N(C)C)n1 | 118 to 119 °C
CCC(=O)Oc1ccc(/C(=C(/CC)c2ccccc2)c2ccc(/C=C/C(=O)O)cc2)cc1 | 158 to 160 °C
C[C@H]([C@](O)(Cn1cncn1)c1ccc(F)cc1F)S(=O)(=O)N1CCCC1 | 149 to 150 °C
Nc1cc(OCC2=CCCSC2)c(Cl)cc1F | 73 to 74 °C
Nc1ncc(-c2ccc([N+](=O)[O-])c(Cl)c2Cl)c(N)n1 | 237 to 239 °C
COc1ccc(-c2nc3cccc(C(=O)NC4CN5CCC4CC5)c3o2)cc1 (centres undefined) | 166 to 167 °C
NC(=O)c1c(Cl)c(-c2ccccc2)n2c1CN(C(=O)c1cccs1)CC2 | 236 to 238 °C
Cn1cc2c(n1)CCCc1c-2cnn1C | 176 to 178 °C
NS(=O)(=O)c1ccc(NN=C2C(=O)Nc3ccc(C(=O)NCCn4ccnc4)cc32)cc1 | > 230 °C
COc1cccc(NC(=O)OC2CN3CCC2CC3)c1 (centres undefined) | 130 to 132 °C
COC(=O)c1c([N+](=O)[O-])cccc1S(=O)(=O)N(CCO)CCO | 92 to 93 °C
C=CCC1(O)CCC2C3CCC4=CC(=O)CCC4C3CCC21Cc1cccc(N(C)C)c1 (centres undefined) | 142 °C

Results, then the compound that gave them:

melting point | Structure (SMILES)
129 to 130 °C | c1cnc(N2CCN(Cc3n[nH]c4ccccc34)CC2)nc1
337 to 339 °C | C[C@H](NC(=O)c1c[nH]c2ncc(-c3cn(-c4cc(Cl)ccc4F)cn3)nc12)C(C)(C)C
174 to 175 °C | COc1cc2c(c3c1OC(C)(C)C3)C(c1ccn(-c3cc(C(N)=O)ccn3)c(=O)c1)=NC(C)(C)C2
110 °C | CCOC(=O)c1sc2c(c1OC(C)=O)CN(Cc1ccccc1Cl)CC2
230 to 232 °C | NC(=O)N1c2ccccc2CC(=NO)c2ccccc21
114 to 116 °C | Cc1c(CCO)c2cc(OCc3csc(-c4ccccc4)n3)ccc2n1Cc1ccccc1
309 to 311 °C | Oc1ccc(O)c(-c2nc3cc(O)ccc3o2)c1
160 to 163 °C | O=C1c2cccc3c2N(C(=O)C2CCCN12)C(c1ccccc1)O3 (centres undefined)
100 to 101 °C | Clc1ccc(C2C=Cc3cc(Br)cnc3O2)cc1Cl (centres undefined)
179 to 181 °C | Cc1cc(-c2nnc3c4ccccc4c(OCc4ncn(C(C)C)n4)nn23)no1
142 to 144 °C | CCCCc1ncc(/C=C(\Cc2ccsc2)c2nnn[nH]2)n1Cc1ccccc1Cl
70 to 75 °C | COC(=O)Cc1ccc(OCCNC(=O)C2Cc3ccccc3N2S(=O)(=O)c2ccc(-c3ccc(F)cc3OC)cc2)cc1 (centres undefined)
204 to 206 °C | CC1(C)COC(=O)N1c1nc(-c2ccc(C#N)c(F)c2)cs1
178 to 180 °C | Cc1ccc(-c2c(N)ncnc2OCCOc2ncc(Br)cn2)cc1
103 to 105 °C | CC(CCc1ccc(OCCO)cc1)NCC(O)c1cccc(Cl)c1 (centres undefined)
103 to 105 °C | C#CC[C@H](c1nc2cc(Cl)ccc2c(=O)n1Nc1ccccc1)N(CCCNC(=O)OCc1ccccc1)C(=O)c1cccc(Cl)c1F
126 to 132 °C | CCCCOc1cc2ncnc(N3CCc4ccc(Cl)cc43)c2cc1OC
53 to 56 °C | OCCCCCCOc1ccc2ccccc2c1
137 to 138 °C | COc1cccc(C(O)C(C)(C)NC(=O)Cc2ccc(OC)c(OC)c2)c1 (centres undefined)
196 °C | COc1ccc(CN2CC(=O)Nc3ccc(OC)cc3C2=O)c(OC)c1
188 to 189 °C | Cc1cc(N2CCN(c3nc(-c4ccccc4)nc(C)c3C)CC2)cc(C)c1O
